Columns and labels:
HCC-2998 = assay type: cell-based
SK-MEL-28 = assay type: cell-based
A498 = assay type: cell-based
OVCAR-4 = assay type: cell-based
IGROV1 = assay type: cell-based
786-0 = assay type: cell-based
U251 = assay type: cell-based; conditions: U251, five dose
TOP I (Topoisomerase I) [1] = target: T1, TOP I (Topoisomerase I) (Homo sapiens, UniProt P11387); assay: TOP I mediated supercoiled DNA relaxation assay; assay type: biochemical; conditions: five different concentrations; TopoGEN TG2005H, TG-2000H-1
T1 construct: purchased TopoGEN TG2005H
T1 sequence (P11387 1-765): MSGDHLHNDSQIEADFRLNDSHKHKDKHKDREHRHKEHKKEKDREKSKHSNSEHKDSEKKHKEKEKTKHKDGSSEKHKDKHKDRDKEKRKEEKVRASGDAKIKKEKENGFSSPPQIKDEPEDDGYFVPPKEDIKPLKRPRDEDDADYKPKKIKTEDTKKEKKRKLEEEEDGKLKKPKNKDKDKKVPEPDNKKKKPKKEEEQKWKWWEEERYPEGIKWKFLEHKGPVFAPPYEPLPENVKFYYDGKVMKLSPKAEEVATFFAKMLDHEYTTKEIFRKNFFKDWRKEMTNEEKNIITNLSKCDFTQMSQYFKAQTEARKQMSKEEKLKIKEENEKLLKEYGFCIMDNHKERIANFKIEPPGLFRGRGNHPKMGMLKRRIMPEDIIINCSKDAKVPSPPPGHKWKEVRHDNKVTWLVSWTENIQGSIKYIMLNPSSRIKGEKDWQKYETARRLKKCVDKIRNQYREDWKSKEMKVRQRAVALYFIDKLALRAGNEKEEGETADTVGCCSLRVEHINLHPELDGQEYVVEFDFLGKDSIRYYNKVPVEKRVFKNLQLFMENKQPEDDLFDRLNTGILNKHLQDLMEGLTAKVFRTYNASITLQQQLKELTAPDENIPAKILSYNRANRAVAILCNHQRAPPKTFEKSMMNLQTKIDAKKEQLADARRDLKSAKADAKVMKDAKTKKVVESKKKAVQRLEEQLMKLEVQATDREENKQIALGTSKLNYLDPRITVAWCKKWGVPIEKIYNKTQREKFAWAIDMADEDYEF

MALME-3M = assay type: cell-based
[2] = target: T2, TOP II (Topoisomerase II) (Homo sapiens, UniProt P11388); assay: TOP II-catalyzed relaxation of plasmid DNA assay; assay type: biochemical
T2 construct: purchased TopoGEN TG-2000H-1
T2 sequence (P11388 whole entry): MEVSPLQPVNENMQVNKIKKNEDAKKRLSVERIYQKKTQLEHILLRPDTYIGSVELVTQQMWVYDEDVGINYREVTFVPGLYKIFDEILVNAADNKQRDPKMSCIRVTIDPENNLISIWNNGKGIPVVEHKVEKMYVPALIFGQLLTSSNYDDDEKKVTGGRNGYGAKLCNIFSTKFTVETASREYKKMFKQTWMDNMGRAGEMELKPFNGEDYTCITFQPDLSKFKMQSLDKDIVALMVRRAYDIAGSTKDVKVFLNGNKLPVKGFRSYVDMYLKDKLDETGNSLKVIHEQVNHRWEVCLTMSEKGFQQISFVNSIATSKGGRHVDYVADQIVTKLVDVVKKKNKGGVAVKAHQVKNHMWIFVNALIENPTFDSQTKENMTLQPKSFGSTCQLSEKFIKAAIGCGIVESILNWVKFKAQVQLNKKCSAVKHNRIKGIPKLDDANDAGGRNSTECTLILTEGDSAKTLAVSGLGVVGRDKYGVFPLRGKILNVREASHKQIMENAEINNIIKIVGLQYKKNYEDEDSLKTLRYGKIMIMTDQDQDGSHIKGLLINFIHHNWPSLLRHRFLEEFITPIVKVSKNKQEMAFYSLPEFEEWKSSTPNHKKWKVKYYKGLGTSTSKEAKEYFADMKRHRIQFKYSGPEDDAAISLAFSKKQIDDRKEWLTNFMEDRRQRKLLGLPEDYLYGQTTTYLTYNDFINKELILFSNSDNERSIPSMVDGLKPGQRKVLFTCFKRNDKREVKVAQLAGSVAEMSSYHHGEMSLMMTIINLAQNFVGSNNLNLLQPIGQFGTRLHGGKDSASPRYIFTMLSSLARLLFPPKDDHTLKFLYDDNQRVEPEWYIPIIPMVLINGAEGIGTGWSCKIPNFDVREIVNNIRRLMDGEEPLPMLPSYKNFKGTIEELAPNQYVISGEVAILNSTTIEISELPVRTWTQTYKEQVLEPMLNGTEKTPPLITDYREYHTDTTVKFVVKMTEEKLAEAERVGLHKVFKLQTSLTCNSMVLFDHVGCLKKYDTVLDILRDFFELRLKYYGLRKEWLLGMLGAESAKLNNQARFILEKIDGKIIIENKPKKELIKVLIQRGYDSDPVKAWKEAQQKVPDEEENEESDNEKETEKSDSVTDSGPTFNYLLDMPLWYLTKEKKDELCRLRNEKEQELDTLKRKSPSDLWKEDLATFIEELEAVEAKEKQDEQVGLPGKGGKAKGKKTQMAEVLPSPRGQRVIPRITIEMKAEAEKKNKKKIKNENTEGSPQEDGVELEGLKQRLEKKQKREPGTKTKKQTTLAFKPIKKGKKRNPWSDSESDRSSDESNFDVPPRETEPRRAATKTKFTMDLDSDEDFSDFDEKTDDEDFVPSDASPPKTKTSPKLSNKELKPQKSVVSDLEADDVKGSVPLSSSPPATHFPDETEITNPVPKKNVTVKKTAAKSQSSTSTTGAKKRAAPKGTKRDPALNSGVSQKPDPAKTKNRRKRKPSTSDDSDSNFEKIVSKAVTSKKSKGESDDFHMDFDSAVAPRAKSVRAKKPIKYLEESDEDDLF
Method: We also performed TOP II-catalyzed relaxation of plasmid DNA assays (FIG. 5-7) to evaluate if compounds could inhibit TOP II. […] The IC50 value of compounds 7, N7, N8, N14, N15, N18, and N19 were about 10, 10, 1, 10, 5, 1, and 1 μM, respectively (detect by TopoGEN TG2005H, TG-2000H-1).

MDA-MB-486 = assay type: cell-based
UACC-257 = assay type: cell-based
SF-268 = assay type: cell-based
OVCAR-3 = assay type: cell-based; conditions: Ovarian cancer; 10^−5 molar; 48 hours; SRB
HOP-92 = assay type: cell-based; conditions: HOP-92, five dose
HS 578T = assay type: cell-based
NCI-H226 = assay type: cell-based
SK-MEL-2 = assay type: cell-based; conditions: SK-Mel-2, five dose
CAKI-1 = assay type: cell-based
TOP I (Topoisomerase I) [3] = target: T1, TOP I (Topoisomerase I); assay: TOP I mediated supercoiled DNA relaxation assay; assay type: biochemical; conditions: primary assay at 25 and/or 50 μM
Method: According to the cell cytotoxicity, compounds 5, 7, 8, 16, 19, N2, N7, N8, N9, N14-N19, and N25 were also selected for primary TOP I and II activities assays at 25 and/or 50 μM (FIG. 2-4).

RPMI-8226 = assay type: cell-based
SF-295 = assay type: cell-based
SF-539 = assay type: cell-based
[4] = Homo sapiens, HCC-2998, five dose
[5] = Homo sapiens, SK-MEL-28, five dose
[6] = Melanoma, 10^−5 molar, 48 hours, SRB
[7] = Renal cancer, 10^−5 molar, 48 hours, SRB
[8] = Ovarian cancer, 10^−5 molar, 48 hours, SRB
[9] = Homo sapiens, MALME-3M, five dose
[10] = Breast cancer, 10^−5 molar, 48 hours, SRB
[11] = CNS cancer, 10^−5 molar, 48 hours, SRB
[12] = Homo sapiens, SF-539, five dose

Compound: NCCNc1nc2ccccc2c2c(=O)c3cc(Cl)ccc3sc12 [Compound N14, 6-((2-Aminoethyl)amino)-10-chloro-12H-thiochromeno[2,3-c]quinolin-12-one]
- Growth percent HCC-2998 (HCC-2998; Colon cancer, 10^−5 molar, 48 hours, SRB): −90.43%
- TGI (HCC-2998; HCC-2998, five dose): 4.06 µM
- GI50 (HCC-2998; [4]): 2.03 µM
- LC50 (HCC-2998; [4]): 8.14 µM
- GI50 (SK-MEL-28; [5]): 1.75 µM
- LC50 (SK-MEL-28; [5]): 5.66 µM
- Growth percent SK-MEL-28 (SK-MEL-28; [6]): −96.20%
- TGI (SK-MEL-28; SK-MEL-28, five dose): 3.15 µM
- TGI (A498; A498, five dose): 4.99 µM
- GI50 (A498; Homo sapiens, A498, five dose): 1.45 µM
- CC50 (A498; Homo sapiens, A498, five dose, read-out: LC50 (the source's name)): 29.2 µM
- Growth percent A498 (A498; [7]): 60.29%
- GI50 (OVCAR-4; Homo sapiens, OVCAR-4, five dose): 1.52 µM
- CC50 (OVCAR-4; Homo sapiens, OVCAR-4, five dose, read-out: LC50 (the source's name)): 6.54 µM
- TGI (OVCAR-4; OVCAR-4, five dose): 3.15 µM
- Growth percent OVCAR-4 (OVCAR-4; [8]): −20.15%
- GI50 (IGROV1; Homo sapiens, IGROV-1, IGROV1, five dose): 1.61 µM
- TGI (IGROV1; IGROV1, five dose): 3.45 µM
- Growth percent IGROV1 (IGROV1; [8]): −77.31%
- TGI (786-0; 786-0, five dose): 3.20 µM
- GI50 (786-0; Homo sapiens, 786-0, five dose): 1.76 µM
- CC50 (786-0; Homo sapiens, 786-0, five dose, read-out: LC50 (the source's name)): 5.81 µM
- Growth percent 786-0 (786-0; [7]): −57.40%
- GI50 (U251; Homo sapiens, U-251): 1.63 µM
- LC50 (U251; Homo sapiens, U-251): 5.78 µM
- TGI (U251): 3.07 µM
- IC50 (TOP I (Topoisomerase I) [1]): ~1 µM
- GI50 (MALME-3M; [9]): 1.98 µM
- LC50 (MALME-3M; [9]): 7.93 µM
- TGI (MALME-3M; MALME-3M, five dose): 3.96 µM
- Growth percent MALME-3M (MALME-3M; [6]): −48.42%
- IC50 ([2]; five different concentrations, TopoGEN TG2005H, TG-2000H-1, read-out: IC50 value, TOP II mediated supercoiled DNA relaxation): ~10 µM
- inhibitory effect in TOP II relaxation assay compared with VP-16 ([2]; primary assay at 25 and/or 50 μM): more potent inhibitory effects than the positive agent VP-16
- GI50 (MDA-MB-486; 60 cell, MDA-MB-486, five dose): 1.27 µM
- CC50 (MDA-MB-486; 60 cell, MDA-MB-486, five dose, read-out: LC50 (the source's name)): 6.15 µM
- Growth percent MDA-MB-486 (MDA-MB-486; [10]): −62.13%
- TGI (MDA-MB-486; MDA-MB-486, five dose): 2.80 µM
- GI50 (UACC-257; Homo sapiens, UACC-257, five dose): 1.9 µM
- CC50 (UACC-257; Homo sapiens, UACC-257, five dose, read-out: LC50 (the source's name)): 6.7 µM
- Growth percent UACC-257 (UACC-257; [6]): −67.35%
- TGI (UACC-257; UACC-257, five dose): 3.56 µM
- Growth percent SF-268 (SF-268; [11]): −67.65%
- GI50 (SF-268; Homo sapiens, SF-268, five dose): 1.59 µM
- CC50 (SF-268; Homo sapiens, SF-268, five dose, read-out: LC50 (the source's name)): 6.55 µM
- TGI (SF-268; SF-268, five dose): 3.23 µM
- Growth percent OVCAR-3 (OVCAR-3): −84.15%
- TGI (HOP-92): 3.05 µM
- GI50 (HOP-92; Homo sapiens): 1.03 µM
- LC50 (HOP-92; Homo sapiens): 9.04 µM
- Growth percent HS 578T (HS 578T; [10]): 50.82%
- TGI (HS 578T; HS 578T, five dose): 3.90 µM
- GI50 (HS 578T; Homo sapiens, HS 578T, five dose): 1.69 µM
- GI50 (NCI-H226; Homo sapiens, NCI-H226, five dose): 1.36 µM
- TGI (NCI-H226; NCI-H226, five dose): 2.95 µM
- Growth percent NCI-H226 (NCI-H226; Non-small cell lung cancer, 10^−5 molar, 48 hours, SRB): 28.55%
- GI50 (SK-MEL-2; Homo sapiens): 1.98 µM
- LC50 (SK-MEL-2; Homo sapiens): 7.87 µM
- TGI (SK-MEL-2): 3.95 µM
- TGI (CAKI-1; CAKI-1, five dose): 3.27 µM
- GI50 (CAKI-1; Homo sapiens, CAKI-1, five dose): 1.56 µM
- Growth percent CAKI-1 (CAKI-1; [7]): −75.30%
- inhibitory effect in TOP I activity assay compared with CPT (TOP I (Topoisomerase I) [3]): more potent inhibitory effects than CPT
- GI50 (RPMI-8226; Homo sapiens, RPMI-8226, five dose): 2.26 µM
- CC50 (RPMI-8226; Homo sapiens, RPMI-8226, five dose, read-out: LC50 (the source's name)): 62.3 µM
- Growth percent RPMI-8226 (RPMI-8226; Leukemia, 10^−5 molar, 48 hours, SRB): −27.48%
- TGI (RPMI-8226; RPMI-8226, five dose): 4.92 µM
- Growth percent SF-295 (SF-295; [11]): −74.29%
- GI50 (SF-295; Homo sapiens, SF-295, five dose): 1.79 µM
- TGI (SF-295; SF-295, five dose): 3.63 µM
- Growth percent SF-539 (SF-539; [11]): 2.13%
- GI50 (SF-539; [12]): 1.57 µM
- LC50 (SF-539; [12]): 5.52 µM
- TGI (SF-539; SF-539, five dose): 2.95 µM
